Test results as given in PubChem BioAssay (NCI).
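Compound exposure: 48 hours, 5 concentrations, 96-well plates. The concentration for 50% growth inhibition is given as GI50. Definition used: TGI = concentration required for complete inhibition of growth.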

Legend:
Assay in all cases: inhibition of tumour cell growth, NCI panel, 48 h
[1] = test system: HCT-116 colon
[2] = test system: MCF7 breast
[3] = test system: DU-145 prostate
[4] = test system: MOLT-4 leukemia
[5] = test system: IGROV1 ovarian
[6] = test system: SK-MEL-5 melanoma
[7] = test system: NCI-H226 lung
[8] = test system: SR leukemia
[9] = test system: T-47D breast
[10] = test system: M14 melanoma
[11] = test system: A549 NSCLC
[12] = test system: A498 renal
[13] = test system: MDA-N
[14] = test system: MDA-MB-231 breast
[15] = test system: LOX IMVI melanoma
[16] = test system: NCI-H522 lung
[17] = test system: MALME-3M melanoma
[18] = test system: SK-MEL-28 melanoma
[19] = test system: SN12C renal
[20] = test system: HT29 colon
[21] = test system: HCC-2998 colon
[22] = test system: RPMI-8226 leukemia
[23] = test system: COLO 205 colon
[24] = test system: TK-10 renal
[25] = test system: NCI/ADR-RES ovarian
[26] = test system: BT-549 breast
[27] = test system: OVCAR-5 ovarian
[28] = test system: SK-OV-3 ovarian
[29] = test system: OVCAR-4 ovarian
[30] = test system: UACC-62 melanoma
[31] = test system: KM12 colon
[32] = test system: NCI-H23 lung
[33] = test system: OVCAR-8 ovarian
[34] = test system: SK-MEL-2 melanoma
[35] = test system: EKVX NSCLC
[36] = test system: HL-60(TB) leukemia
[37] = test system: HCT-15 colon
[38] = test system: OVCAR-3 ovarian
[39] = test system: ACHN renal
[40] = test system: RXF 393 renal
[41] = test system: SW-620 colon
[42] = test system: SF-295 CNS
[43] = test system: UACC-257 melanoma
[44] = test system: K-562 leukemia
[45] = test system: SF-268 CNS
[46] = test system: HOP-62 NSCLC
[47] = test system: PC-3 prostate
[48] = test system: CAKI-1 renal
[49] = test system: UO-31 renal
[50] = test system: MDA-MB-435
[51] = test system: 786-0 renal
[52] = test system: U251 CNS
[53] = test system: SNB-19 CNS
[54] = test system: CCRF-CEM leukemia
[55] = test system: HOP-92 NSCLC
[56] = test system: NCI-H460 lung
[57] = test system: SNB-75 CNS
[58] = test system: HS 578T breast
[59] = test system: SF-539 CNS

COc1ccc(CCNC(=O)c2ccccc2C2c3ccc(OCc4ccccc4)cc3Oc3cc(OCc4ccccc4)ccc32)cc1OC
TGI [1]: > 100 µM | TGI [2]: > 100 µM | TGI [3]: > 100 µM | TGI [4]: > 100 µM | TGI [5]: > 100 µM | TGI [6]: > 100 µM | TGI [7]: > 100 µM | TGI [8]: > 100 µM | TGI [9]: > 100 µM | TGI [10]: > 100 µM | TGI [11]: > 100 µM | TGI [12]: > 100 µM | TGI [13]: > 100 µM | TGI [14]: > 100 µM | TGI [15]: > 100 µM | TGI [16]: > 100 µM | TGI [17]: > 100 µM | TGI [18]: > 100 µM | TGI [19]: > 100 µM | TGI [20]: > 100 µM | TGI [21]: > 100 µM | TGI [22]: > 100 µM | TGI [23]: > 100 µM | TGI [24]: > 100 µM | TGI [25]: > 100 µM | TGI [26]: > 100 µM | TGI [27]: > 100 µM | TGI [28]: > 100 µM | TGI [29]: > 100 µM | TGI [30]: > 100 µM | TGI [31]: > 100 µM | TGI [32]: > 100 µM | TGI [33]: > 100 µM | TGI [34]: > 100 µM | TGI [35]: > 100 µM | TGI [36]: > 100 µM | TGI [37]: > 100 µM | TGI [38]: > 100 µM | TGI [39]: > 100 µM | TGI [40]: > 100 µM | TGI [41]: > 100 µM | TGI [42]: > 100 µM | TGI [43]: > 100 µM | TGI [44]: > 100 µM | TGI [45]: > 100 µM | TGI [46]: > 100 µM | TGI [47]: > 100 µM | TGI [48]: > 100 µM | TGI [49]: > 100 µM | TGI [50]: > 100 µM | TGI [51]: > 100 µM | TGI [52]: > 100 µM | TGI [53]: > 100 µM

Nc1nc(Cl)c2ncn(Cc3cccc(CCl)c3)c2n1
TGI [1]: 4.05 µM | TGI [2]: > 31 µM | TGI [3]: 18.6 µM | TGI [4]: > 30.8 µM | TGI [5]: 12.3 µM | TGI [6]: 15.9 µM | TGI [7]: 26.9 µM | TGI [54]: > 30.7 µM | TGI [8]: > 28.3 µM | TGI [9]: 42.1 µM | TGI [10]: 12.9 µM | TGI [11]: 29.9 µM | TGI [12]: 50.8 µM | TGI [14]: 27.6 µM | TGI [15]: 13.4 µM | TGI [16]: 7.03 µM | TGI [55]: 24.5 µM | TGI [17]: 18.1 µM | TGI [18]: 23.9 µM | TGI [19]: 22.4 µM | TGI [20]: 19.2 µM | TGI [21]: 4.86 µM | TGI [22]: 9.81 µM | TGI [56]: 27 µM | TGI [23]: 30.1 µM | TGI [24]: 22.1 µM | TGI [25]: 11.5 µM | TGI [57]: 26.8 µM | TGI [26]: 17.4 µM | TGI [27]: 22.8 µM | TGI [28]: 50.8 µM | TGI [29]: 5.07 µM | TGI [30]: 10.9 µM | TGI [31]: 16 µM | TGI [58]: 36.9 µM | TGI [32]: 4.23 µM | TGI [33]: 11.3 µM | TGI [34]: 58.5 µM | TGI [35]: 21.2 µM | TGI [36]: > 36.1 µM | TGI [37]: 5.58 µM | TGI [38]: 3.74 µM | TGI [39]: 12.4 µM | TGI [40]: 10.5 µM | TGI [41]: 11.9 µM | TGI [42]: 21.3 µM | TGI [43]: 20.7 µM | TGI [44]: > 51 µM | TGI [45]: 18.9 µM | TGI [46]: 9.48 µM | TGI [47]: 26.4 µM | TGI [48]: 5.37 µM | TGI [49]: 33.7 µM | TGI [50]: 29 µM | TGI [51]: 22.6 µM | TGI [52]: 6.15 µM | TGI [59]: 20 µM | TGI [53]: 20.6 µM

Oc1[nH]c2ccccc2c1/C=c1/ccc2c(c1)N=C(c1ccc(C(F)(F)F)cc1)N=2
GI50 [1]: 1.37 µM | TGI [1]: 12.3 µM | GI50 [2]: 2.98 µM | TGI [2]: 12.9 µM | GI50 [3]: 4.11 µM | TGI [3]: 16 µM | GI50 [4]: 1.67 µM | TGI [4]: 3.94 µM | GI50 [5]: 3.01 µM | TGI [5]: 13.3 µM | GI50 [6]: 8.72 µM | TGI [6]: 20.9 µM | GI50 [7]: 14.5 µM | TGI [7]: 30.5 µM | GI50 [54]: 1.65 µM | TGI [54]: 5.05 µM | GI50 [8]: 1.7 µM | TGI [8]: 4.54 µM | GI50 [9]: 3.58 µM | TGI [9]: 14.4 µM | GI50 [10]: 2.05 µM | TGI [10]: 9.04 µM | GI50 [11]: 4.81 µM | TGI [11]: 17.8 µM | GI50 [12]: 1.54 µM | TGI [12]: 11.2 µM | GI50 [14]: 2.04 µM | TGI [14]: 14 µM | GI50 [15]: 1.82 µM | TGI [15]: 5.37 µM | GI50 [16]: 1.97 µM | TGI [16]: 13.5 µM | GI50 [17]: 2.9 µM | TGI [17]: 9.23 µM | GI50 [18]: 3.11 µM | TGI [18]: 16.2 µM | GI50 [19]: 6.91 µM | TGI [19]: 20.6 µM | GI50 [20]: 1.61 µM | TGI [20]: 11.3 µM | GI50 [21]: 3.77 µM | TGI [21]: 16.2 µM | GI50 [22]: 1.34 µM | TGI [22]: 4 µM | GI50 [56]: 2.13 µM | TGI [56]: 6.12 µM | GI50 [23]: 9.89 µM | TGI [23]: 22.1 µM | GI50 [24]: 10.4 µM | TGI [24]: 22.2 µM | GI50 [25]: 3.98 µM | TGI [25]: 13.1 µM | GI50 [57]: 2.79 µM | TGI [57]: 12.9 µM | GI50 [26]: 2.04 µM | TGI [26]: 9.25 µM | GI50 [27]: 10.1 µM | TGI [27]: 22 µM | GI50 [28]: 12.1 µM | TGI [28]: 25 µM | GI50 [29]: 3.94 µM | TGI [29]: 15.8 µM | GI50 [30]: 2.62 µM | TGI [30]: 15.8 µM | GI50 [31]: 1.09 µM | TGI [31]: 12.7 µM | GI50 [58]: 3.09 µM | TGI [58]: 12.7 µM | GI50 [32]: 3.39 µM | TGI [32]: 15.7 µM | GI50 [33]: 5.94 µM | TGI [33]: 20.3 µM | GI50 [34]: 5.08 µM | TGI [34]: 15.3 µM | GI50 [35]: 4.34 µM | TGI [35]: 16.9 µM | GI50 [36]: 2.26 µM | TGI [36]: 5.27 µM | GI50 [37]: 4.09 µM | TGI [37]: 20.3 µM | GI50 [38]: 0.74 µM | TGI [38]: 3.89 µM | GI50 [39]: 3.24 µM | TGI [39]: 17.4 µM | GI50 [40]: 2.21 µM | TGI [40]: 4.32 µM | GI50 [41]: 1.92 µM | TGI [41]: 5.55 µM | GI50 [42]: 2.7 µM | TGI [42]: 12.2 µM | GI50 [43]: 7.4 µM | TGI [43]: 21.5 µM | GI50 [44]: 1.41 µM | TGI [44]: 3.46 µM | GI50 [45]: 3.46 µM | TGI [45]: 11.9 µM | GI50 [46]: 4.94 µM | TGI [46]: 15.6 µM | GI50 [47]: 1.54 µM | TGI [47]: 3.75 µM | GI50 [48]: 3.11 µM | TGI [48]: 13.6 µM | GI50 [49]: 2.48 µM | TGI [49]: 13 µM | GI50 [50]: 1.17 µM | TGI [50]: 5.69 µM | GI50 [51]: 1.48 µM | TGI [51]: 3.56 µM | GI50 [52]: 2.83 µM | TGI [52]: 12.8 µM | GI50 [59]: 7.45 µM | TGI [59]: 21.1 µM | GI50 [53]: 5.38 µM | TGI [53]: 21.1 µM
